Series [1] deals with T1, NaV1.7 (Homo sapiens, UniProt Q15858).
T1 construct: expressed in transfected cells; host or cells: HEK293 (tetracycline-inducible)
The experiment in a line: Automated patch clamp (Qube 384), internal block of NaV1.7. The series is classed as cell-based. Particulars: IC50, compound in internal solution, HEK293 cells, read-out: Nav1.7 Intracellular Inhibition. The protocol:
(§1) NaV1.7 was expressed in HEK293 cells upon induction with tetracycline. Cells were cultured in DMEM containing 10% dialyzed Fetal Bovine Serum (VWR, Radnor, Pa.), 1% Glutamax (VWR, Radnor, Pa.), 1% Penicillin-Streptomycin (VWR, Radnor, Pa.), 100 mg/L Hygromycin (Thermo Fisher Scientific, Waltham, Mass. and 5 mg/L Blasticidin (Alfa Aesar, Haverhill, Mass.). Cells were grown and maintained at 37° C. in a humidified environment containing 10% CO2 in air. Cells were detached from the culture flask for passage and harvested using 0.05% Trypsin-EDTA (Thermo Fisher Scientific, Waltham, Mass.). To induce NaV1.7, cells were induced with tetracycline (0.1-1 μg/mL, IBI Scientific, Peosta, Iowa) the day before recording.
Before experiments, cells were washed with DPBS (VWR, Radnor, Pa.), digested with Detachin (VWR Radnor, Pa.) and then triturated 10 times in CHO Serum-Free Media (VWR Radnor, Pa.) to resuspend the cells and to break apart cell aggregates. Cells were counted and the final concentration was set at 2-5 million cells per mL.
The intracellular solution contained the following: 140 mM CsF, 1 mM/5 mM EGTA/CsOH, 10 mM HEPES, 10 mM NaCl, adjusted to pH 7.3 with CsOH, and osmolality to 320 with OSM solution. The external solution contained the following: 145 mM NaCl, 4 mM KCl, 1 mM MgCl2, 2 mM CaCl2), 10 mM HEPES, 10 mM Glucose, adjusted to pH 7.4 with CsOH and osmolality to 305 with OSM solution. The OSM solution was a normal Ringer solution containing (in mM) NaCl 155, HEPES 10, sucrose, KCl 3.5, CaCl2) 1.5, MgCl2 1 adjusted to pH 7.4 with NaOH. All chemicals are from Sigma-Aldrich, St. Louis, Mo. In order to test the degree of internal block by test compounds, the compounds were dissolved in internal solution at the indicated test concentration. […] In order to test the degree of external block by test compounds the compounds were dissolved in external solution at the indicated test concentration.
Automated Patch Clamps were performed on Qube 384 (Sophion Bioscience, Woburn Mass.) with multihole Qchips at a temperature setting of 22 degrees. The whole cells configuration was formed with default Qube seal and break-in parameter. The membrane potential was held at −100 mV before the voltage protocol began. Two voltage protocols were followed.
Step 1: Cells were held at −100 mV with a depolarized pulse to −20 mV for 10 ms, the interval was set at 5 s. Currents were corrected by default leak subtraction from every pulse. The duration was set at 5 mins.
Step 2: Cells were held at −100 mV with a depolarized pulse to −20 mV for 10 ms. The frequency was 5 Hz. Currents were corrected by leak subtraction calculated before step 2. The duration was set at 4 mins.
After Step 2, the Qchip was removed from the recording chamber. The internal solution was changed with solutions containing test compounds. Qchips were held at −100 mV without pulsing after being replaced in the recording chamber. The total solution switching time was 8 minutes. After the internal solution exchange, Cells were recorded and step 2 for repeated for 10 minutes.
Data analysis was performed by Sophion Analyzer. Cells were filtered with minimum 50 MOhm seal resistance and minimum 5 nA starting current. The rundown of the currents was corrected with control cells (Non-Drug). The remaining was calculated by averaging last 3 points in the end of experiments. The base line was calculated as the average of last 3 points of Step 2.
IC50 curves were plotted with DR-plots/Hill function (a dose-response plot with a Hill fit).
Representative examples of the invention were tested for intracellular inhibition of NaV 1.7 in the automated patch clamp assay. Activity Range is reported as IC50: “++++” (<0.3 μM), “+++” (0.3-1 μM), “++” (1-3 μM) or “+” (3-10 μM).

Series [2] addresses T1, NaV1.7. The series can be described thus: Manual patch clamp, internal block of NaV1.7 current. The series is classed as cell-based. Particulars: compound in internal solution, HEK293 cells, read-out: Nav1.7 Intracellular Inhibition; for inhibition at 10 µM: % inhibition at 10 μM test concentration; for inhibition at 3 µM: % inhibition at 3 μM test concentration. The protocol: Representative compounds of the invention were synthesized according to the described methods and tested for the ability to inhibit voltage-gated sodium channels.
as §1, with “recording and plated onto 24-well plates. Cells were washed with DPBS (VWR, Radnor, Pa.), trypsinized and then triturated five times in 10 mL of growth media to break apart cell aggregates. For one 24-well plate, 2 mL of cell suspension was mixed with 23 mL of fresh growth media and 0.1-1 μg/mL tetracycline added. 1 ml of mixed media with cells was then added to each well of a 24-well plate, with a 12 mm coverslip already placed in the bottom of the well. Cells were then incubated in 37° C. and 10% CO2 overnight.” for “recording.”
The intracellular solution contained the following (in mM) CsCl 135, NaCl 10, EGTA 10, HEPES 10, MgCl2 2, adjusted to pH 7.2 with CsOH. The external solution was a normal Ringer solution containing (in mM) NaCl 155, HEPES 10, glucose 10, KCl 3.5, CaCl2 1.5, MgCl2 1 adjusted to pH 7.4 with NaOH. CsCl is from Alfa Aesar, Haverhill, Mass. All other chemicals are from Sigma-Aldrich, St. Louis, Mo. In order to test the degree of internal block by test compounds the compounds were dissolved in internal solution at the indicated test concentration. […] In order to test the degree of external block by test compounds the compounds were dissolved in external solution at the indicated test concentration.
18-24 hours after cells were induced with tetracycline, coverslips were placed into a chamber filled with Normal Ringer solution at room temperature and the chamber placed on a microscope. Pipettes were pulled from borosilicate glass on a P97 puller (Sutter Instrument, Novato, Calif.) and polished with a MF-830 Microforge (Narishige International USA, Inc., Amityville, N.Y.) to have a resistance of 1.5-2.5 MΩ when filled with CsCl internal solution at room temperature. Healthy cells (those that are round and translucent with no visible blemishes) were chosen for seal formation. A seal was formed between the pipette and the cell, and a brief pulse of suction was used to “break in” and establish the whole-cell configuration. The membrane potential was held at −100 mV before the voltage protocol began. Only cells with series resistance between 1.5-5 MΩ were retained for analysis. The voltage protocol was as follows: Cells were held at −100 mV for 12 ms followed by a hyperpolarizing step to −105 mV for 12 ms to monitor the leak. Cells were then stepped back to −100 mV for 40 ms. Cells were then depolarized to −20 mV for 10 ms and then returned to −100 mV for 26 ms.
Once the recording was started, the voltage protocol was run at 30 second intervals for 5 minutes to get a stable baseline. This was followed by four 30-second periods of 5 Hz stimulation of the same voltage protocol separated by 1 minute of rest which was then followed by 0.33 Hz stimulation after the last train. Currents were recorded using PatchMaster software with Heka EPC10 (HEKA Electronics, Lambrecht, Germany). Only cells with inward current amplitudes at −20 mV between 400 pA and 4 nA were accepted. In addition, cells having leak currents greater than 10% of their current amplitudes were discarded. […]

The nature of series [3]: PAMPA membrane permeability assay. In kind it is in vitro ADME. Particulars: permeability coefficient, pH 7.4 buffer, GIT lipid, 4 hours incubation. The protocol: The PAMPA assay (pION, Inc., Woburn Mass.) was used to determine the ability of compounds of the invention to cross an artificial lipid membrane by passive diffusion. Test compounds were dissolved in DMSO (10 mM) and diluted 200-fold in buffer (pION Inc., pH 7.4) to provide 50 uM stock solutions. Buffer (150 μL) was added to a UV blank plate and stock solutions (150 μL) were transferred to a UV reference plate. The blank and reference spectrum were read using a spectrophotometer. Stock solutions (200 μL) were added to the donor plate of the PAMPA sandwich plate and an accept plate painted with GIT lipid (pION Inc, 5) was placed on top. Buffer (200 μL) was added to the acceptor plate and the PAMPA sandwich plate was incubated for 4 hours. Aliquots (150 μL) from the acceptor plate were added to a UV plate and read as acceptor spectrum. Aliquots (150 μL) of the donor solutions were added to a UV analysis plate and read as donor spectrum. The permeability coefficient of test compounds was calculated using PAMPA Explorer™ software (version 3.5.0.4) based on the AUC of the reference plate, the donor plate, and the acceptor plate.
The PAMPA permeability results (10^−6 cm/s) of representative compounds are reported as “+” (<0.1 10^−6 cm/s), “++” (0.1-2.0 10^−6 cm/s), “+++” (2.0-10.010^−6 cm/s) or “++++” (>10.0 10^−6 cm/s).

SMILES strings stand for the structures.

T1 sequence (Q15858 whole entry): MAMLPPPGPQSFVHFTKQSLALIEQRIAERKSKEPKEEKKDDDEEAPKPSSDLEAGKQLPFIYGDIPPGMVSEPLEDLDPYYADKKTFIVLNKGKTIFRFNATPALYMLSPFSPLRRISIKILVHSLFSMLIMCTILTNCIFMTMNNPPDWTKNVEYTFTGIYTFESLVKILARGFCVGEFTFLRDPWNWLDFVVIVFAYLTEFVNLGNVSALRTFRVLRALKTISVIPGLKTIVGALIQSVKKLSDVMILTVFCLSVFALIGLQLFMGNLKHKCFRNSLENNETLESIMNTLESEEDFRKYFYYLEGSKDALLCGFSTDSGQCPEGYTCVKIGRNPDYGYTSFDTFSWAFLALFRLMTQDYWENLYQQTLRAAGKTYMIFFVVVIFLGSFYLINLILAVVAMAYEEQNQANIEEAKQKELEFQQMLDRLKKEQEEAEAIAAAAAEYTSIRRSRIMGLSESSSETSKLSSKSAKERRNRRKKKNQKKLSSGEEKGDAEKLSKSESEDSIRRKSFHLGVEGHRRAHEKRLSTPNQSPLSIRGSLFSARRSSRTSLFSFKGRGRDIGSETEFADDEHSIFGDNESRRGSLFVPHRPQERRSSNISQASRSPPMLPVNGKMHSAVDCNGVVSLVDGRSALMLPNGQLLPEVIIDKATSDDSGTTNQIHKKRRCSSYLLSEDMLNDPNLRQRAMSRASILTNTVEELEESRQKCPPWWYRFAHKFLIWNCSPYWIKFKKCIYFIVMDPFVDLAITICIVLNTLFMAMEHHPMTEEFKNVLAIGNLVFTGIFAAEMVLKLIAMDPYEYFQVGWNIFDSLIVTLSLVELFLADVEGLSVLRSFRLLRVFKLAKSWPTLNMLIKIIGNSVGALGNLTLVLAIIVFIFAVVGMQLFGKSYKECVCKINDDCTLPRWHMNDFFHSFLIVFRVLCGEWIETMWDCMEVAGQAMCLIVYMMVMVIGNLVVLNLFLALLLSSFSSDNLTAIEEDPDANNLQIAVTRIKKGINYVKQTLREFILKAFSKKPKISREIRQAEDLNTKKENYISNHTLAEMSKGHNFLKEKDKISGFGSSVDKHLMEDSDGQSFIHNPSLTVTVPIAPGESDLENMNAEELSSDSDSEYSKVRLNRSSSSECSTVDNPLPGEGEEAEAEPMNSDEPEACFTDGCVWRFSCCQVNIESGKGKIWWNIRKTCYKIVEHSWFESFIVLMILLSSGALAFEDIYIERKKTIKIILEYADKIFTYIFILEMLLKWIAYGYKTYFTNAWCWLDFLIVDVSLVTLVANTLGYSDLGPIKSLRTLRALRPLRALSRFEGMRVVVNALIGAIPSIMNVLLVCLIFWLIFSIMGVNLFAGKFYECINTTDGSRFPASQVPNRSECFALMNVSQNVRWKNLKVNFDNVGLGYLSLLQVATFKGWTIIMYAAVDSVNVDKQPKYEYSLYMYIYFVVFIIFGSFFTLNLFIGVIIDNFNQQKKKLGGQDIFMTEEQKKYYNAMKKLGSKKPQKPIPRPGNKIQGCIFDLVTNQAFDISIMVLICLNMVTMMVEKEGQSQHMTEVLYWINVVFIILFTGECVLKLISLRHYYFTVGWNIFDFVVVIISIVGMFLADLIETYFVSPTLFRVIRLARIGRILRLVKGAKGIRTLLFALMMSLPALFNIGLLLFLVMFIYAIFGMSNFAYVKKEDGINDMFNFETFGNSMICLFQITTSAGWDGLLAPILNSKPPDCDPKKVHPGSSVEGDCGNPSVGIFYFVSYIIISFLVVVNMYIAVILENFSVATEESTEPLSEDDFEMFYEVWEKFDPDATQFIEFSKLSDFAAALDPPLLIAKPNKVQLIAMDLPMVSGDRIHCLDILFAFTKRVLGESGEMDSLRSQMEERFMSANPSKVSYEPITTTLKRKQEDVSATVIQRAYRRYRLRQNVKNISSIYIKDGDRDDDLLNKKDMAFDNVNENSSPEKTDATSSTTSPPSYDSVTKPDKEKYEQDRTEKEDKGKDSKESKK

Regarding `Cc1cccc(C)c1NC(=O)C[N+]1(Cc2ccccc2)CCCCCC1` [Compound 3], the IC50 on NaV1.7 [1] was in the range of 300 to 1000 nM.

For `CCC(C(=O)Nc1c(C)cccc1C)[N+]1(Cc2cccc(Cl)c2)CCCCC1` (centres unmarked) [Compound 11], on NaV1.7 [1], the IC50 lay in the range of 300 to 1000 nM.

In the case of `CCC(C(=O)Nc1c(C)cccc1C)[N+]1(Cc2cccc(C#N)c2)CCCCC1` (centres unmarked) [Compound 14], on NaV1.7 [1], the IC50 fell in the range of 300 to 1000 nM.

With `CCc1cccc(C[N+]2(C(CC)C(=O)Nc3c(C)cccc3C)CCCCC2)c1` (centres unmarked) [Compound 20], the IC50 on NaV1.7 [1] is 1000 to 3000 nM.

Consider `CCC(C(=O)Nc1c(C)cccc1C)[N+]1(Cc2cccc(OC)c2)CCCCC1` (centres unmarked) [Compound 23], for which, on NaV1.7 [1], the IC50 lay in the range of 300 to 1000 nM.

For `CCC(C(=O)Nc1c(C)cccc1C)[N+]1(Cc2ccsc2)CCCCC1` (centres unmarked) [Compound 26A], the inhibition at 10 µM at NaV1.7 [2] lay within 70 to 95%. Moreover, the “PAMPA (10^−6 cm/s)” value in series [3] is on record as “+ (“+” (<0.1 10^−6 cm/s))”.

Regarding `CCC(C(=O)Nc1c(C)cccc1C)[N+]1(Cc2cc(C)on2)CCCCC1` (centres unmarked) [Compound 27A], the inhibition at 10 µM at NaV1.7 [2] lay within 70 to 95%. In addition, the “PAMPA (10^−6 cm/s)” value in series [3] is reported as “+ (“+” (<0.1 10^−6 cm/s))”.

Consider `CCC(C(=O)Nc1c(C)cccc1C)[N+]1(Cc2cccc(O)c2)CCCCC1` (centres unmarked) [Compound 29], for which, on NaV1.7 [1], the IC50 was less than 300 nM.

`CCC(C(=O)Nc1c(C)cccc1C)[N+]1(Cc2ccccc2)CCCCCC1.[Br-]` (centres unmarked) [Compound 30A, 1-benzyl-1-(1-((2,6-dimethylphenyl)amino)-1-oxobutan-2-yl) azepan-1-ium bromide]: on NaV1.7 [2], the inhibition at 3 µM was more than 90% and the inhibition at 10 µM was more than 95%. Also, in series [3], the “PAMPA (10^−6 cm/s)” value was “+ (“+” (<0.1 10^−6 cm/s))”.

In the case of `CCC(C(=O)Nc1c(C)cccc1C)[N+]1(Cc2ccccc2)CCCCCC1` (centres unmarked) [Compound 30], the IC50 on NaV1.7 [1] is less than 300 nM.

For `Cc1cccc(C)c1NC(=O)C[N+]1(Cc2ccccc2)CCCCCCC1.[Br-]` [Compound 31A, 1-benzyl-1-(2-((2,6-dimethylphenyl)amino)-2-oxoethyl)azocan-1-ium bromide], at NaV1.7 [2], the inhibition at 3 µM was more than 90% and the inhibition at 10 µM is more than 95%. Besides, in series [3], the “PAMPA (10^−6 cm/s)” value is “+ (“+” (<0.1 10^−6 cm/s))”.

For `CCC(C(=O)Nc1c(C)cccc1C)[N+]1(Cc2cnn(C)c2)CCCCC1.[Br-]` (centres unmarked) [Compound 34A, 1-(1-((2,6-dimethylphenyl)amino)-1-oxobutan-2-yl)-1-((1-methyl-1H-pyrazol-4-yl)methyl) piperidin-1-ium bromide], at NaV1.7 [2], the inhibition at 3 µM lay within 70 to 90%. Besides, in series [3], the “PAMPA (10^−6 cm/s)” value is “+ (“+” (<0.1 10^−6 cm/s))”.

Turning to `CCC(C(=O)Nc1c(C)cc(C)cc1C)[N+]1(Cc2ccccc2)CCCCC1.[Br-]` (centres unmarked) [Compound 39A, 1-benzyl-1-(1-(mesitylamino)-1-oxobutan-2-yl) piperidin-1-ium bromide], on NaV1.7 [2], the inhibition at 10 µM lay in the range of 70 to 95%. In series [3], the “PAMPA (10^−6 cm/s)” value is “+ (“+” (<0.1 10^−6 cm/s))”.

`CCCCNC(=O)C1CCC[N+](CC(=O)Nc2c(C)cccc2C)(Cc2ccccc2)C1.[Br-]` (centres unmarked) [Compound 59A]: on NaV1.7 [2], the inhibition at 3 µM was less than 40% and the inhibition at 10 µM was 70 to 95%. In addition, the “PAMPA (10^−6 cm/s)” value in series [3] is recorded as “+ (“+” (<0.1 10^−6 cm/s))”.

`CCCN(CCC)C(=O)C1CCC[N+](CC(=O)Nc2c(C)cccc2C)(Cc2ccccc2)C1` (centres unmarked) [Compound 67A]: the IC50 on NaV1.7 [1] was in the range of 1000 to 3000 nM.

For the compound `Cc1cccc(C(F)(F)F)c1NC(=O)C[N+]1(Cc2ccccc2)CCCCCC1` [Compound 73A], the IC50 on NaV1.7 [1] lay in the range of 300 to 1000 nM. On NaV1.7 [2], the inhibition at 3 µM is more than 90%.

As to `Cc1cccc(C)c1N1CCCC([N+]2(Cc3ccccc3)CCCCCC2)C1=O` (centres unmarked) [Compound 93A], at NaV1.7 [2], the inhibition at 3 µM was 70 to 90%. Also, the “PAMPA (10^−6 cm/s)” value in series [3] is on record as “+ (“+” (<0.1 10^−6 cm/s))”.

The values above are taken from patent US11603355B2, “Charged ion channel blockers and methods for use” (Nocion Therapeutics, Inc., priority 2019, dated 2023).
